Measured values: PubChem BioAssay (NCI)
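Five compound concentrations were applied to cells in 96-well plates for 48 hours; endpoints were derived by simple linear interpolation of the resulting dose-response curve. The concentration for 50% growth inhibition is given as GI50. TGI denotes the concentration required for complete inhibition of growth.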

Tests used:
Assay in all cases: NCI anticancer screen, dose series, 48 h
SK-MEL-2 melanoma = tested on: SK-MEL-2 melanoma
MOLT-4 leukemia = tested on: MOLT-4 leukemia
MDA-MB-231 breast = tested on: MDA-MB-231 breast
LOX IMVI melanoma = tested on: LOX IMVI melanoma
HCT-116 colon = tested on: HCT-116 colon
RPMI-8226 leukemia = tested on: RPMI-8226 leukemia
NCI/ADR-RES ovarian = tested on: NCI/ADR-RES ovarian
SF-295 CNS = tested on: SF-295 CNS
NCI-H522 lung = tested on: NCI-H522 lung
UO-31 renal = tested on: UO-31 renal
HCT-15 colon = tested on: HCT-15 colon
SF-539 CNS = tested on: SF-539 CNS
MALME-3M melanoma = tested on: MALME-3M melanoma
OVCAR-4 ovarian = tested on: OVCAR-4 ovarian
M14 melanoma = tested on: M14 melanoma
OVCAR-5 ovarian = tested on: OVCAR-5 ovarian
SK-MEL-5 melanoma = tested on: SK-MEL-5 melanoma
786-0 renal = tested on: 786-0 renal
DU-145 prostate = tested on: DU-145 prostate
A549 NSCLC = tested on: A549 NSCLC
SK-MEL-28 melanoma = tested on: SK-MEL-28 melanoma
SW-620 colon = tested on: SW-620 colon
OVCAR-8 ovarian = tested on: OVCAR-8 ovarian
RXF 393 renal = tested on: RXF 393 renal
NCI-H226 lung = tested on: NCI-H226 lung
K-562 leukemia = tested on: K-562 leukemia
HCC-2998 colon = tested on: HCC-2998 colon
NCI-H460 lung = tested on: NCI-H460 lung
COLO 205 colon = tested on: COLO 205 colon
T-47D breast = tested on: T-47D breast
SNB-75 CNS = tested on: SNB-75 CNS
SN12C renal = tested on: SN12C renal
UACC-62 melanoma = tested on: UACC-62 melanoma
A498 renal = tested on: A498 renal
SF-268 CNS = tested on: SF-268 CNS
TK-10 renal = tested on: TK-10 renal
OVCAR-3 ovarian = tested on: OVCAR-3 ovarian
HOP-62 NSCLC = tested on: HOP-62 NSCLC
KM12 colon = tested on: KM12 colon
CAKI-1 renal = tested on: CAKI-1 renal
PC-3 prostate = tested on: PC-3 prostate
HT29 colon = tested on: HT29 colon
SK-OV-3 ovarian = tested on: SK-OV-3 ovarian
SNB-19 CNS = tested on: SNB-19 CNS
ACHN renal = tested on: ACHN renal
BT-549 breast = tested on: BT-549 breast
CCRF-CEM leukemia = tested on: CCRF-CEM leukemia
HOP-92 NSCLC = tested on: HOP-92 NSCLC
MCF7 breast = tested on: MCF7 breast
UACC-257 melanoma = tested on: UACC-257 melanoma
HS 578T breast = tested on: HS 578T breast
NCI-H23 lung = tested on: NCI-H23 lung
MDA-MB-435 = tested on: MDA-MB-435
U251 CNS = tested on: U251 CNS
IGROV1 ovarian = tested on: IGROV1 ovarian
HL-60(TB) leukemia = tested on: HL-60(TB) leukemia

In the case of `O=C1/C(=C\c2ccc(Cl)cc2)CN(C(=S)Nc2ccccc2)C/C1=C\c1ccc(Cl)cc1`, the GI50 (SK-MEL-2 melanoma) is reported as 2.57 µM, the TGI (SK-MEL-2 melanoma) is reported as 5.8 µM and the GI50 (MOLT-4 leukemia) is reported as 1.74 µM. The TGI (MOLT-4 leukemia) was 13.7 µM, the GI50 (MDA-MB-231 breast) was 0.735 µM and the TGI (MDA-MB-231 breast) was 5.44 µM. It also gave a GI50 (LOX IMVI melanoma) of 0.203 µM, a TGI (LOX IMVI melanoma) of 0.432 µM and a GI50 (HCT-116 colon) of 0.213 µM. It also gave a TGI (HCT-116 colon) of 0.438 µM, a GI50 (RPMI-8226 leukemia) of 0.136 µM and a TGI (RPMI-8226 leukemia) of 0.646 µM. For the same molecule, the GI50 (NCI/ADR-RES ovarian) was 2.54 µM, the TGI (NCI/ADR-RES ovarian) was 18.4 µM and the GI50 (SF-295 CNS) was 0.389 µM. For the same molecule, the TGI (SF-295 CNS) was 1.73 µM, the GI50 (NCI-H522 lung) was 1.82 µM and the TGI (NCI-H522 lung) was 3.84 µM. For the same molecule, the GI50 (UO-31 renal) was 1.21 µM, the TGI (UO-31 renal) was 2.56 µM and the GI50 (HCT-15 colon) was 0.283 µM. It also gave a TGI (HCT-15 colon) of 3.27 µM, a GI50 (SF-539 CNS) of 0.427 µM and a TGI (SF-539 CNS) of 1.54 µM. The GI50 (MALME-3M melanoma) was 2.22 µM, the TGI (MALME-3M melanoma) was 4.86 µM and the GI50 (OVCAR-4 ovarian) was 0.343 µM. For the same molecule, the TGI (OVCAR-4 ovarian) was 2.77 µM, the GI50 (M14 melanoma) was 1.7 µM and the TGI (M14 melanoma) was 4.2 µM. For the same molecule, the GI50 (OVCAR-5 ovarian) was 1.47 µM, the TGI (OVCAR-5 ovarian) was 3.49 µM and the GI50 (SK-MEL-5 melanoma) was 1.66 µM. For the same molecule, the TGI (SK-MEL-5 melanoma) was 3.12 µM, the GI50 (786-0 renal) was 0.351 µM and the TGI (786-0 renal) was 1.23 µM. It also gave a GI50 (DU-145 prostate) of 1.11 µM, a TGI (DU-145 prostate) of 3.48 µM and a GI50 (A549 NSCLC) of 0.415 µM. The TGI (A549 NSCLC) was 10.3 µM, the GI50 (SK-MEL-28 melanoma) was 1.79 µM and the TGI (SK-MEL-28 melanoma) was 3.39 µM. The GI50 (SW-620 colon) was 0.298 µM, the TGI (SW-620 colon) was 1.04 µM and the GI50 (OVCAR-8 ovarian) was 0.527 µM. The TGI (OVCAR-8 ovarian) was > 47.9 µM, the GI50 (RXF 393 renal) was 0.397 µM and the TGI (RXF 393 renal) was 1.13 µM. It also gave a GI50 (NCI-H226 lung) of 1.64 µM, a TGI (NCI-H226 lung) of 4.58 µM and a GI50 (K-562 leukemia) of 0.356 µM. For the same molecule, the TGI (K-562 leukemia) was 7.67 µM, the GI50 (HCC-2998 colon) was 0.755 µM and the TGI (HCC-2998 colon) was 1.94 µM. For the same molecule, the GI50 (NCI-H460 lung) was 0.471 µM, the TGI (NCI-H460 lung) was 2.15 µM and the GI50 (COLO 205 colon) was 0.507 µM. The TGI (COLO 205 colon) was 1.84 µM, the GI50 (T-47D breast) was 1.1 µM and the TGI (T-47D breast) was 3.61 µM. The GI50 (SNB-75 CNS) was 1.25 µM, the TGI (SNB-75 CNS) was 3.82 µM and the GI50 (SN12C renal) was 0.544 µM. It also gave a TGI (SN12C renal) of 1.89 µM, a GI50 (UACC-62 melanoma) of 1.2 µM and a TGI (UACC-62 melanoma) of 2.92 µM. For the same molecule, the GI50 (A498 renal) was 1.66 µM, the TGI (A498 renal) was 3.15 µM and the GI50 (SF-268 CNS) was 0.754 µM. For the same molecule, the TGI (SF-268 CNS) was 2.26 µM, the GI50 (TK-10 renal) was 1.96 µM and the TGI (TK-10 renal) was 4.48 µM. For the same molecule, the GI50 (OVCAR-3 ovarian) was 0.437 µM, the TGI (OVCAR-3 ovarian) was 1.49 µM and the GI50 (HOP-62 NSCLC) was 0.269 µM. The TGI (HOP-62 NSCLC) was 0.696 µM, the GI50 (KM12 colon) was 0.261 µM and the TGI (KM12 colon) was 0.645 µM. For the same molecule, the GI50 (CAKI-1 renal) was 2.56 µM, the TGI (CAKI-1 renal) was > 29.2 µM and the GI50 (PC-3 prostate) was 0.371 µM. The TGI (PC-3 prostate) was 2.09 µM, the GI50 (HT29 colon) was 0.277 µM and the TGI (HT29 colon) was 0.719 µM. For the same molecule, the GI50 (SK-OV-3 ovarian) was 2.03 µM, the TGI (SK-OV-3 ovarian) was 4.86 µM and the GI50 (SNB-19 CNS) was 0.661 µM. For the same molecule, the TGI (SNB-19 CNS) was 1.95 µM, the GI50 (ACHN renal) was 1.22 µM and the TGI (ACHN renal) was 2.65 µM. For the same molecule, the GI50 (BT-549 breast) was 0.6 µM, the TGI (BT-549 breast) was 1.77 µM and the GI50 (CCRF-CEM leukemia) was 0.453 µM. It also gave a TGI (CCRF-CEM leukemia) of 13.2 µM, a GI50 (HOP-92 NSCLC) of 1.85 µM and a TGI (HOP-92 NSCLC) of 4.83 µM. The GI50 (MCF7 breast) was 0.292 µM, the TGI (MCF7 breast) was 1.15 µM and the GI50 (UACC-257 melanoma) was 1.83 µM. It also gave a TGI (UACC-257 melanoma) of 3.78 µM, a GI50 (HS 578T breast) of 3 µM and a TGI (HS 578T breast) of 23.3 µM. It also gave a GI50 (NCI-H23 lung) of 1.3 µM, a TGI (NCI-H23 lung) of 3.92 µM and a GI50 (MDA-MB-435) of 1.09 µM. The TGI (MDA-MB-435) was 3.01 µM, the GI50 (U251 CNS) was 0.212 µM and the TGI (U251 CNS) was 0.484 µM. For the same molecule, the GI50 (IGROV1 ovarian) was 0.953 µM, the TGI (IGROV1 ovarian) was 2.87 µM and the GI50 (HL-60(TB) leukemia) was 1.62 µM. The TGI (HL-60(TB) leukemia) was 7.85 µM.
